This assay concerns the target human ACC2 (Homo sapiens (Human), UniProt O00763). The assay can be described thus: ACC2 assay (spectrophotometric 384 well assay, NADH-linked kinetic method). In kind it is biochemical. The note with it: hACC2 construct lacking 128 N-terminal amino acids, 25° C., 340 nm. The method, then: Spectrophotometric 384 Well Assay
Malonyl CoA formation by acetyl CoA carboxylases is stoichometrically linked to the consumption of ATP. ACC2 activity is measured in a NADH-linked kinetic method measuring ADP generated during the ACC reaction using a coupled lactate dehydrogenase/pyruvate kinase reaction.
The protein is then expressed in insect cells using a baculoviral expression system. Protein purification is performed by anion exchange.
All compounds are dissolved in dimethyl sulfoxide (DMSO) to a concentration of 10 mM.
The enzymatic reaction is then started by addition of a mixture of NADH, acetyl Coenzyme A (both 200 μM f.c.) and ATP (500 uM f.c.). The decrease of the optical density (slope S) is then determined at 25° C. at a wavelength of 340 nm over 15 minutes in a spectrophotometric reader.
Each assay microtiter plate contains wells with vehicle instead of compound as controls for the non-inhibited enzyme (100% CTL; ‘HIGH’) and wells without acetyl-CoA as controls for non-specific NADH degradation (0% CTL; ‘LOW’).

Structures are written as SMILES.

IC50 data for 67 compounds are collected here from patent US9169205B2, “Pyrrolidine derivatives, pharmaceutical compositions and uses thereof” (Boehringer Ingelheim International GmbH, priority 2012, dated 2015).

human ACC2, sequence (O00763 129-2458): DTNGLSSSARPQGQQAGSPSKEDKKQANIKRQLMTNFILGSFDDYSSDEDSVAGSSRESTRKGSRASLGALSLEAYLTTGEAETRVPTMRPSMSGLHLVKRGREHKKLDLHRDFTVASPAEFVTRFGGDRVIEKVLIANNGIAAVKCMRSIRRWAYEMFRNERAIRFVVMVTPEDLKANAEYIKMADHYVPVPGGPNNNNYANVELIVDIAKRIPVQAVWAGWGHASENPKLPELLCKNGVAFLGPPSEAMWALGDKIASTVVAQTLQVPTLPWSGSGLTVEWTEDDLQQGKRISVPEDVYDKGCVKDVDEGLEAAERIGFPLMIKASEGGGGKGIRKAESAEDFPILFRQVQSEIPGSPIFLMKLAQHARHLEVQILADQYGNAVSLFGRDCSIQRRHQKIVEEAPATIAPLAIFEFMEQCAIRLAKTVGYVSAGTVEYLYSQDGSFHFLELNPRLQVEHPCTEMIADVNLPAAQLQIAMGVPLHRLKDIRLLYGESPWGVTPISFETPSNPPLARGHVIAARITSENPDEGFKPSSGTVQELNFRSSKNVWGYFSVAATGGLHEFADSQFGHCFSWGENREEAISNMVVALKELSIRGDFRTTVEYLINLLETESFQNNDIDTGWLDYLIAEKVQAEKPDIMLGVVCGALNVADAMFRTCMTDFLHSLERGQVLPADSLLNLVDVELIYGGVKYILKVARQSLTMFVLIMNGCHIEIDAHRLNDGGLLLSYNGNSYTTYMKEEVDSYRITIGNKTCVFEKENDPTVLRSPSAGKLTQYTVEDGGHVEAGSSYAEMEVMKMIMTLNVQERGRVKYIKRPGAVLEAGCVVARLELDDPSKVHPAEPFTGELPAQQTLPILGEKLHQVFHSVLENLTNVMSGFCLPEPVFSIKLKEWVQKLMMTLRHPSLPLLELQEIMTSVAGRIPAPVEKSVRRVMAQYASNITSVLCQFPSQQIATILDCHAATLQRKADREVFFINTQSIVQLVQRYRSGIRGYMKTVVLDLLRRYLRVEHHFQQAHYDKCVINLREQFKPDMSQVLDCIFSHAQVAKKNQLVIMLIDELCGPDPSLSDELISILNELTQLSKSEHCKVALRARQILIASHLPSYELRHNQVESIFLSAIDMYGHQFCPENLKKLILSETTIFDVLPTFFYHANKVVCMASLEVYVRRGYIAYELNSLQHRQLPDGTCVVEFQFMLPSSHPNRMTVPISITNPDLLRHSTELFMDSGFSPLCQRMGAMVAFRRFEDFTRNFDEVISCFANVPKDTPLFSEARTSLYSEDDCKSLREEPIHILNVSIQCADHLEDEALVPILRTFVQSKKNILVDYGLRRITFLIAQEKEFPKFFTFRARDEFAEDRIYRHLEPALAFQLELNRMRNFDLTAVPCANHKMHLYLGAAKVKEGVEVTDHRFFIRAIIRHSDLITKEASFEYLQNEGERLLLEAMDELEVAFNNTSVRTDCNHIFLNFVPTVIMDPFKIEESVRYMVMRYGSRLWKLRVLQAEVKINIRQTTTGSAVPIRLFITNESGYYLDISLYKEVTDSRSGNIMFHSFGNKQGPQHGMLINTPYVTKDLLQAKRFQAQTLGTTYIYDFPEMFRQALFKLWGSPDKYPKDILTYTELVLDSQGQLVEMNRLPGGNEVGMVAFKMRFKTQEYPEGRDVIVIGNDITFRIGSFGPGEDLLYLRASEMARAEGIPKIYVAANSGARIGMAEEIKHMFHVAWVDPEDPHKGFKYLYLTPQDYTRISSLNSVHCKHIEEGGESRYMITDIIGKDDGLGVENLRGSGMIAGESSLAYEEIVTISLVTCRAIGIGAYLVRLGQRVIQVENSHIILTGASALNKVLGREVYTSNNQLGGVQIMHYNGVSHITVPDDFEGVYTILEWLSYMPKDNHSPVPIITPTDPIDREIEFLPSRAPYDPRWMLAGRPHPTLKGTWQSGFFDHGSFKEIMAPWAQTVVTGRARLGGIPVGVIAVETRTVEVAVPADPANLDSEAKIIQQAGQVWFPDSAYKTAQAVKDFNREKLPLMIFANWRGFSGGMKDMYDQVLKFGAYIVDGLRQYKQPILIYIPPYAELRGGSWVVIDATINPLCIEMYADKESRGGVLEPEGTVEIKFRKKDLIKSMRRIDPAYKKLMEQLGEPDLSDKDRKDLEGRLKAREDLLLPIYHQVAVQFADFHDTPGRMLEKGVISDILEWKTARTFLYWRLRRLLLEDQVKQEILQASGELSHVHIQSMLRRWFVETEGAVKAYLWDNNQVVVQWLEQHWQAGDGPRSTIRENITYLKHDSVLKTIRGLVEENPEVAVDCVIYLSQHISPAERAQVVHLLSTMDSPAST

In turn, `CC(=O)N[C@@H](C)c1ccc(O[C@@H]2CCN(c3ccc(OCC4CC4)cc3)C2)cc1` [Example 1.1, N—((S)-1-(4-((R)-1-(4-(Cyclopropylmethoxy)phenyl)pyrrolidin-3-yloxy)phenyl)ethyl)-acetamide] came in with an IC50 of 54 nM.
For the compound `CCOc1ccc(N2CCC(Oc3ccc([C@H](C)NC(C)=O)cc3)C2)cc1` (stereo partly shown) [Example 1.2], the IC50 came to 198 nM.
The same measure for `CCOc1ccc(N2CC[C@H](Oc3ccc([C@H](C)NC(C)=O)cc3)C2)cc1` [Example 1.3]: 263 nM.
In turn, `CCOc1cccc(N2CC[C@H](Oc3ccc([C@H](C)NC(C)=O)cc3)C2)c1` [Example 1.4] displayed an IC50 of 514 nM.
The compound `CCOc1cccc(N2CC[C@@H](Oc3ccc([C@H](C)NC(C)=O)cc3)C2)c1` [Example 1.5] registered an IC50 of 204 nM. Compared with the last compound, the IC50 is about 2.5-fold lower.
As for `CC(=O)N[C@@H](C)c1ccc(OC2CCN(c3ccc(OC4CC4)cc3)C2)cc1` (stereo partly shown) [Example 1.6], the figure is 108 nM.
As for `CC(=O)N[C@@H](C)c1ccc(OC2CCN(c3ccc4c(c3)OCCO4)C2)cc1` (stereo partly shown) [Example 1.7], the figure is 229 nM; as for `CCCOc1ccc(N2CCC(Oc3ccc([C@H](C)NC(C)=O)cc3)C2)cc1` (stereo partly shown) [Example 1.8], 140 nM.
`CCCOc1ccc(N2CCC(Oc3ccc([C@H](C)NC(C)=O)cc3)C2)c(OC)c1` (stereo partly shown) [Example 1.9] showed an IC50 of 1150 nM.
As for `CC(=O)N[C@@H](C)c1ccc(OC2CCN(c3ccc(OCC4CC4)cc3F)C2)cc1` (stereo partly shown) [Example 1.10], the figure is 230 nM; as for `CC(=O)N[C@@H](C)c1ccc(O[C@@H]2CCN(c3cccc(OCC4CC4)c3)C2)cc1` [Example 1.11], 226 nM.
As for `CC(=O)N[C@@H](C)c1ccc(OC2CCN(c3ccc(Cl)cc3)C2)cc1` (stereo partly shown) [Example 1.12], the midpoint of inhibition, the IC50, lay at 899 nM.
On to `CCCOc1ccc(N2CCC(Oc3ccc([C@H](C)NC(C)=O)cc3)C2)c(C#N)c1` (stereo partly shown) [Example 1.13], for which the IC50 is 155 nM.
The same measure for `CC(=O)N[C@@H](C)c1ccc(OC2CCN(c3ccc(OC4CCC4)cc3)C2)cc1` (stereo partly shown) [Example 1.14]: 36 nM.
As for `CC(=O)N[C@@H](C)c1ccc(OC2CCN(c3ccc(OC(C)C)cc3)C2)cc1` (stereo partly shown) [Example 1.15], the figure is 214 nM; as for `CC(=O)N[C@@H](C)c1ccc(OC2CCN(c3ccc(OCC4CC4(F)F)cc3)C2)cc1` (stereo partly shown) [Example 1.16], 25 nM.
For `CC(=O)N[C@@H](C)c1ccc(OC2CCN(c3ccc(OCC4CCOC4)cc3)C2)cc1` (stereo partly shown) [Example 1.17], the midpoint of inhibition, the IC50, lay at 894 nM. Against the preceding compound, the IC50 is about 36-fold higher.
As for `CC(=O)N[C@@H](C)c1ccc(OC2CCN(c3ccc4c(c3)OCC(C)(C)CO4)C2)cc1` (stereo partly shown) [Example 1.18], the figure is 214 nM.
`CCOc1ccc(N2CCC(Oc3ccc([C@H](C)NC(C)=O)cc3)C2)c(F)c1` (stereo partly shown) [Example 1.19] registered an IC50 of 240 nM.
The same measure for `CC(=O)N[C@@H](C)c1ccc(OC2CCN(c3cccc4c3OCCO4)C2)cc1` (stereo partly shown) [Example 1.20]: 2960 nM.
As for `CC(=O)N[C@@H](C)c1ccc(OC2CCN(c3ccc(OCC4CCCO4)cc3)C2)cc1` (stereo partly shown) [Example 1.21], the figure is 573 nM; as for `COc1ccc(N2CCC(Oc3ccc([C@H](C)NC(C)=O)cc3)C2)c(F)c1` (stereo partly shown) [Example 1.22], 559 nM; as for `CC(=O)N[C@@H](C)c1ccc(OC2CCN(c3ccc4c(c3)OCCCO4)C2)cc1` (stereo partly shown) [Example 1.23], 84 nM.
As for `COc1ccc(N2CCC(Oc3ccc([C@H](C)NC(C)=O)cc3)C2)cc1` (stereo partly shown) [Example 1.24], the figure is 589 nM.
Turning to `CC(=O)N[C@@H](C)c1ccc(OC2CCN(c3ccc(OC4CC4)cc3C)C2)cc1` (stereo partly shown) [Example 1.25], the IC50 was 86 nM.
The compound `CC(=O)N[C@@H](C)c1ccc(OC2CCN(c3ccc4c(c3)CCO4)C2)cc1` (stereo partly shown) [Example 1.26] showed a concentration for half-maximal inhibition (IC50) of 397 nM. Compared with the last compound, the IC50 is about 4.6-fold higher.
As for `CC(=O)N[C@@H](C)c1ccc(OC2CCN(c3cccc(C(F)(F)F)c3)C2)cc1` (stereo partly shown) [Example 1.27], the figure is 110 nM; as for `CC(=O)N[C@@H](C)c1ccc(OC2CCN(c3ccc(F)c(F)c3)C2)cc1` (stereo partly shown) [Example 1.28], 672 nM; as for `CCCOc1ccc(N2CCC(Oc3ccc([C@H](C)NC(C)=O)cc3)C2)c(Cl)c1` (stereo partly shown) [Example 1.29], 60 nM.
The compound `CC(=O)N[C@@H](C)c1ccc(OC2CCN(c3cc(C(F)(F)F)ccc3C)C2)cc1` (stereo partly shown) [Example 1.30] yielded an IC50 of 174 nM.
For `CC(=O)N[C@@H](C)c1ccc(OC2CCN(c3cccc(F)c3C)C2)cc1` (stereo partly shown) [Example 1.31], the midpoint of inhibition, the IC50, lay at 913 nM.
As to `COc1ccc(N2CCC(Oc3ccc([C@H](C)NC(C)=O)cc3)C2)cc1C(F)(F)F` (stereo partly shown) [Example 1.32], 538 nM corresponded to half-maximal inhibition (IC50).
The same measure for `CC(=O)N[C@@H](C)c1ccc(OC2CCN(c3ccc(C4CCC4)cc3)C2)cc1` (stereo partly shown) [Example 1.33]: 125 nM.
The same measure for `CC(=O)N[C@@H](C)c1ccc(OC2CCN(c3ccc(F)c(C(F)(F)F)c3)C2)cc1` (stereo partly shown) [Example 1.34]: 224 nM.
As for `CC(=O)N[C@@H](C)c1ccc(OC2CCN(c3ccc(F)cc3F)C2)cc1` (stereo partly shown) [Example 1.35], the figure is 899 nM; as for `CC(=O)N[C@@H](C)c1ccc(OC2CCN(c3cc4c(cc3F)OCCCO4)C2)cc1` (stereo partly shown) [Example 1.36], 97 nM.
Compound `COCCCOc1ccc(N2CCC(Oc3ccc([C@H](C)NC(C)=O)cc3)C2)c(F)c1` (stereo partly shown) [Example 1.37] displayed an IC50 of 484 nM.
As for `COCCOc1ccc(N2CCC(Oc3ccc([C@H](C)NC(C)=O)cc3)C2)c(F)c1` (stereo partly shown) [Example 1.38], the IC50 stood at 685 nM.
With `CC(=O)N[C@@H](C)c1ccc(OC2CCN(c3ccc(C)cc3F)C2)cc1` (stereo partly shown) [Example 1.39], inhibition was half-maximal at 791 nM (IC50).
`CC(=O)N[C@@H](C)c1ccc(OC2CCN(c3ccc(OC4CC4)cc3F)C2)cc1` (stereo partly shown) [Example 1.40]: the IC50 came to 147 nM.
The same measure for `CC(=O)N[C@@H](C)c1ccc(OC2CCN(c3ccc(OCC4CC4(F)F)cc3F)C2)cc1` (stereo partly shown) [Example 1.41]: 45 nM.
As for `CC(=O)N[C@@H](C)c1ccc(OC2CCN(c3ccc(OC4CCOC4)cc3F)C2)cc1` (stereo partly shown) [Example 1.42], the figure is 589 nM; as for `COc1cc(OC2CC2)ccc1N1CCC(Oc2ccc([C@H](C)NC(C)=O)cc2)C1` (stereo partly shown) [Example 1.43], 274 nM.
In the case of `CC(=O)N[C@@H](C)c1ccc(OC2CCN(c3ccccc3)C2)cc1` (stereo partly shown) [Example 1.44], the IC50 stood at 435 nM.
As for `CO[C@H]1CN(c2ccc(OCC3CC3)cc2)CC1Oc1ccc([C@H](C)NC(C)=O)cc1` (stereo partly shown) [Example 1.45], half-maximal inhibition (IC50) required 108 nM.
In the case of `CC(=O)N[C@@H](C)c1ccc(OC2CCN(c3cc4c(cc3F)OCCO4)C2)cc1` (stereo partly shown) [Example 1.46], the IC50 is 226 nM.
As for `CC(=O)N[C@@H](C)c1ccc(OC2CCN(c3ccc4c(c3F)OCCO4)C2)cc1` (stereo partly shown) [Example 1.47], the IC50 was 339 nM.
As for `CC(=O)N[C@@H](C)c1ccc(O[C@H]2CCN(c3ccc(OCC4CC4)cc3)C2)cc1` [Example 1.48], the figure is 180 nM; as for `CC(=O)N[C@@H](C)c1ccc(O[C@H]2CCN(c3ccc(OC4CC4)cc3)C2)cc1` [Example 1.49], 775 nM.
As for `CO[C@@H]1CN(c2ccc(OCC3CC3)cc2)CC1Oc1ccc([C@H](C)NC(C)=O)cc1` (stereo partly shown) [Example 1.51], the figure is 175 nM; as for `CC(=O)N[C@@H](C)c1ccc(OC2CCN(c3ccc(C)c(Cl)c3)C2)cc1` (stereo partly shown) [Example 1.52], 599 nM; as for `CC(=O)N[C@@H](C)c1ccc(OC2CCN(c3cccc(Cl)c3)C2)cc1` (stereo partly shown) [Example 1.53], 204 nM.
For the compound `CC(=O)N[C@@H](C)c1ccc(OC2CCN(c3ccc(F)c(Cl)c3)C2)cc1` (stereo partly shown) [Example 1.54], the IC50 worked out at 300 nM.
As to `CC(=O)N[C@@H](C)c1ccc(OC2CCN(c3cccc(C)c3)C2)cc1` (stereo partly shown) [Example 1.55], the IC50 is 214 nM.
For `CC(=O)NC(C)c1ccc(OC2CCN(c3ccc(OCC4CC4)cc3)C2)nc1` (stereo not shown) [Example 1.56], 298 nM corresponded to half-maximal inhibition (IC50).
Consider `COc1cc(OCC2CC2(F)F)ccc1N1CCC(Oc2ccc([C@H](C)NC(C)=O)cc2)C1` (stereo partly shown) [Example 1.57], for which the IC50 was 443 nM.
`CC(=O)N[C@@H](C)c1ccc(OC2CCN(c3cc(Cl)ccc3Cl)C2)cc1` (stereo partly shown) [Example 1.58] came in with an IC50 of 354 nM.
The same measure for `CC(=O)N[C@@H](C)c1ccc(OC2CCN(c3cc(Cl)ccc3C)C2)cc1` (stereo partly shown) [Example 1.60]: 415 nM; for `CC(=O)N[C@@H](C)c1ccc(OC2CCN(c3cccc(OC(F)(F)F)c3)C2)cc1` (stereo partly shown) [Example 1.61]: 845 nM; for `CCOc1ccc(N2CCC(Oc3ccc([C@H](C)NC(C)=O)cc3)C2)c(F)c1F` (stereo partly shown) [Example 1.62]: 335 nM.
In the case of `C[C@H](NC(=O)N(C)C)c1ccc(OC2CCN(c3ccc(OC4CC4)cc3)C2)cc1` (stereo partly shown) [Example 1.64], the IC50 was 108 nM.
The same measure for `CC(C)Oc1ccc(N2CCC(Oc3ccc([C@H](C)NC(=O)N(C)C)cc3)C2)cc1` (stereo partly shown) [Example 1.65]: 875 nM.
As for `CC(=O)N[C@@H](C)c1ccc(OC2CCN(c3ccc(Oc4ccncc4)cc3)C2)cc1` (stereo partly shown) [Example 1.66], the figure is 791 nM; as for `Cc1cc(OC2CC2)ccc1N1CCC(Oc2ccc([C@H](C)NC(=O)N(C)C)cc2)C1` (stereo partly shown) [Example 1.68], 566 nM; as for `CC(=O)N[C@@H](C)c1ccc(OC2CCN(c3ccc(Oc4cnccn4)cc3)C2)cc1` (stereo partly shown) [Example 1.69], 440 nM.
As for `CC(=O)N[C@@H](C)c1ccc(OC2CCN(c3ccc(OCCCF)cc3)C2)cc1` (stereo partly shown) [Example 1.70], the figure is 53 nM; as for `CC(=O)N[C@@H](C)c1ccc(OC2CCN(c3ccc(OC4CCOC4)cc3)C2)cc1` (stereo partly shown) [Example 1.71], 272 nM.
